Experimental data taken from patent US5837686A, “Peptides and antibodies for treatment of rheumatoid arthritis” (Peptide Therapeutics Limited, priority 1991, dated 1998).
Ends that are not written are not given here.

Assays:
[1] = system: alternative complement (C3) pathway; experiment: Inhibition of C3-activation (IgA-α1 AT complex activation of alternative complement pathway, rabbit RBC lysis); type: biochemical, human; conditions: for C' minimum: Table 6, minimum concentration needed to prevent C3 activation
Experimental: Various peptides were tested for their ability to prevent the IgA-α1 AT complex from activating the alternative complement (C3) pathway. […] This method was based on the method described by Riches and Stanworth, Immunology Letters, 1980, 1, 363,366, with modification to miniaturise it thus allowing the assay to be carried out on microtitre plates. The initial observation by […] and Ishizaka (J Immunol. […] The non-immune complex IgA-α1 AT had been shown in the past to be the only known soluble complex to activate the alternative pathway complement and inhibit the lysis of the rabbit erythrocytes. This inhibition required biologically active complex. […] Positive and negative controls, serum only controls and serum plus IgA-α1 AT complex controls were included in the assay. 25 μl of a suitable dilution of IgA-α1 AT complex (see (iii) above) was added to the test wells and the plates were centrifuged at 2000 rpm for 1 minute. The plates were then incubated at 37° C. for 11/2 hours. 50 μl of a suitable serum dilution (see (a) above) was added and the plates centrifuged at 2000 rpm for 10 minute, then incubated at 37° C. for 30 minutes. 50 μl of 1% rabbit RBC was added and after a further 30 minutes of 37° C. incubation, the plates were centrifuged at 2000 rpm for 10 minutes. Supernatants were taken as previously. The mean values of each of the serum(s), serum and complex (c+s) and total haemolysis wells were calculated. The % haemolysis with respect to lysis by serum wells was calculated. The peptide was considered to have titred out when % lysis value was equal to the calculated % lysis value given by the c+s mean. The titre point for the peptide was calculated as the concentration in μM of the peptide that just gave greater lysis than the c+s mean value.

IgA-α1 AT complex = experiment: HPLC analysis of dissociation of purified IgA-α1 AT complex in vitro; type: biochemical, human; conditions: for HPLC minimum: Table 6, minimum concentration giving complex: free IgA ratio of 20%, >500 = no dissociation at highest concentration tested; for anti-complex activity (in words): summary statements after Tables 2-6
Experimental: The ability of the peptides of the invention to dissociate purified IgA-α1 AT complex in vitro was tested as described below. The anti-rheumatic drug D-penicillamine and other synthetic peptides were used as controls. […] The sample was monitored at wavelength 206 nm at a flow rate of 1 ml/minute with phosphate buffer (0.1M) pH 7.1. They represent the ability of the peptides to dissociate the IgA-α1 AT complex in vitro. In these experiments, the base-lines level comprises a complex: free IgA ratio of 14%. The minimum concentration of peptide taken to produce a positive dissociation effect is that which results in a complex: free IgA ratio at 20%. In the results tables, all the peptide values are expressed in μMoles.

Row | Compound | C' minimum [1] [µM] | HPLC minimum (IgA-α1 AT complex) [µM] | anti-complex activity (in words) (IgA-α1 AT complex) | C' ([1]; Table 1, minimum concentration of peptide needed to prevent C3 activation) [µM] | HPLC % (IgA-α1 AT complex; Table 1, minimum peptide concentration giving complex: free IgA ratio of 20% (base-line 14%), 90 minutes at 37° C.) [µM]
1 | N[C@@H](CCC(=O)N[C@@H](CS)C(=O)NCC(=O)O)C(=O)O [Glutathione] | 31 | 500 | relatively inactive |  | 
2 | HGCGGGGnh2 [Peptide 168] |  |  |  | 8 | 10
3 | CC(C)(S)[C@@H](N)C(=O)O [D-Penicillamine] | 31 | 250 |  |  | 
4 | CC(=O)N[C@@H](CS)C(=O)O [N-acetyl Cysteine] | 4 | 500 | relatively inactive |  | 
5 | N[C@@H](CS)C(=O)O [Cysteine] | 16 | 250 |  |  | 
6 | Substance P (RPKPQQFFGLM; ends and bridges not checked; UniProt P20366 58-68, looked up) [control peptide of Group 6] | > 500 | > 500 |  |  | 
